In ChEMBL document CHEMBL1201862, “PubChem BioAssay data set” (2004):
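Five concentrations, 48 hours, 96-well plates. Here, GI50 denotes the concentration required for 50% inhibition of growth.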 Calls of active or inactive are those of the source. Cut-off read from the data, not from the text of the source: active = GI50 up to about 1.1 µM and inactive = higher.

Experiments:
Assay in all cases: inhibition of tumour cell growth, NCI panel, 48 h
[1] = system: CCRF-CEM
[2] = system: HCC 2998
[3] = system: HCT-15
[4] = system: HOP-18
[5] = system: HT-29
[6] = system: K562
[7] = system: LOX IMVI
[8] = system: MOLT-4
[9] = system: NCI-H460
[10] = system: OVCAR-4
[11] = system: SF-268
[12] = system: SF-295
[13] = system: SK-MEL-28
[14] = system: SNB-78
[15] = system: TK-10
[16] = system: U-251
[17] = system: UACC-257
[18] = system: UACC-62

Measured: GI50

CN(C)CC1CCC/C1=N/OC(=O)c1ccccc1 (stereo not drawn)
inactive: [1] > 100 µM | [2] > 100 µM | [4] > 100 µM | [5] > 100 µM | [6] > 100 µM | [7] > 100 µM | [8] > 100 µM | [9] > 100 µM | [10] > 100 µM | [11] > 100 µM | [12] > 100 µM | [13] > 100 µM | [14] > 100 µM | [15] > 100 µM | [16] > 100 µM | [17] > 100 µM | [18] > 100 µM
> 100 µM: [3]

O=C(CCN(C(=O)O)S(=O)(=O)c1ccc(NC(=O)c2ccccc2)cc1)Nc1ccccc1
> 58.6 µM: [3]
inactive: [1] > 61.7 µM | [2] > 100 µM | [4] > 17.1 µM | [5] > 94.2 µM | [6] > 59.3 µM | [7] > 57.7 µM | [8] > 64.6 µM | [9] > 61.9 µM | [10] > 100 µM | [11] > 100 µM | [12] > 100 µM | [13] > 100 µM | [14] > 100 µM | [15] > 100 µM | [16] > 75.7 µM | [17] > 65.3 µM | [18] > 61.9 µM

CC1=NN2C(c3ccc([N+](=O)[O-])cc3)=CSC2=NC(C)(C)C1
inactive: [1] > 100 µM | [2] > 100 µM | [4] > 100 µM | [5] > 100 µM | [6] > 100 µM | [7] > 100 µM | [8] > 100 µM | [9] > 100 µM | [10] > 100 µM | [11] > 100 µM | [12] > 100 µM | [13] > 100 µM | [14] > 100 µM | [15] > 100 µM | [16] > 100 µM | [17] > 100 µM | [18] > 100 µM
> 100 µM: [3]

CCOC(=O)C(Sc1ccccc1)c1c(OC)cc(=O)oc1/C=[N+](/[O-])c1ccc(N(C)C)cc1 (stereo not drawn)
15.4 µM: [3]
inactive: [1] 4.52 µM | [2] 23.9 µM | [4] 17.1 µM | [5] 16.3 µM | [6] 6.81 µM | [7] 13.4 µM | [8] 13.8 µM | [9] 27.9 µM | [10] 26.7 µM | [11] 31.5 µM | [12] 24.4 µM | [13] 17.5 µM | [14] 27.1 µM | [15] 35 µM | [16] 24.7 µM | [17] 14.6 µM | [18] 22.6 µM

O=C(Nc1ccccc1-c1nn(CN2CCNCC2)c(=S)n(CN2CCNCC2)c1=O)C(F)(F)F
inactive: [1] 17.1 µM | [2] 19.1 µM | [4] 18.2 µM | [5] 23.4 µM | [6] 21.9 µM | [7] 18.8 µM | [8] 23 µM | [9] 20.5 µM | [10] 19.5 µM | [11] 21.4 µM | [12] 29 µM | [13] 18.9 µM | [14] 23 µM | [15] 27.5 µM | [16] 16.9 µM | [17] 17.2 µM | [18] 18.3 µM
15.9 µM: [3]

CCOc1ccccc1NC(=O)CC1Sc2ccccc2NC1=O (stereo not drawn)
53 µM: [3]
inactive: [1] 31.8 µM | [2] > 100 µM | [4] 53.2 µM | [5] 55.3 µM | [6] 38 µM | [7] > 100 µM | [8] 41.5 µM | [9] 44.1 µM | [10] 68.9 µM | [11] > 100 µM | [12] 43.6 µM | [13] > 100 µM | [14] > 100 µM | [15] > 100 µM | [16] 79.4 µM | [17] > 100 µM | [18] 36.2 µM
